{"source": "ChEMBL document CHEMBL6074686", "about": "(Eur J Med Chem, 2025)", "key": {"[1]": {"system": "MCF7", "assay": "Inhibition of cell migration in human MCF7 cells assessed as ratio of migrated cells at 25 nM incubated for 24 hrs by crystal violet staining based inverted microscopic analysis (reference value: 100%)", "type": "functional", "design": "scale not given: the % may be the effect or the level left"}, "[2]": {"system": "SK-OV-3", "assay": "Antitumor activity against human SK-OV-3 cells xenografted xenografted in female BALB/c nude mouse assessed as decrease in Ki-67 expression level in tumor at 10 mg/kg, […] via tail vein once every 2 to 3 days by immunohistochemistry analysis", "type": "functional, organism-based", "settings": "time 2-3 day"}, "[3]": {"system": "SK-OV-3", "assay": "Induction of apoptosis in human SK-OV-3 cells assessed as downregulation of Bcl-2 expression incubated for 24 hrs by Western blotting analysis", "type": "functional, cell-based"}, "[4]": {"system": "SK-OV-3", "assay": "Antitumor activity against human SK-OV-3 cells assessed as reduction in cell viability incubated for 72 hrs by CCK8 assay", "type": "functional, cell-based", "settings": "SK-OV-3, 72 h"}, "[5]": {"system": "MCF7", "assay": "Inhibition of cell migration in human MCF7 cells assessed as wound closure at 10 nM incubated for 24 hrs by wound healing assay (reference value: 44.5 +/- 8.8%)", "type": "functional", "design": "scale not given: the % may be the effect or the level left"}, "[6]": {"system": "SK-OV-3", "assay": "Inhibition of cell migration in human SK-OV-3 cells assessed as reduction in wound closure at 25 nM incubated for 24 hrs by wound healing assay (reference value: 21.8 +/- 7.6%)", "type": "functional", "settings": "SK-OV-3, 24 h, values are per cent of control"}, "[7]": {"system": "SK-OV-3", "assay": "Inhibition of cell migration in human SK-OV-3 cells assessed as decrease in cell density incubated for 24 hrs by wound healing assay", "type": "functional, cell-based", "settings": "dose 3.125-50 nM"}, "[8]": {"molecular_target": "T1, Tubulin (Homo sapiens) (UniProt P68371+Q9H4B7+P0DPH7+P68366+Q13509+Q71U36+P04350+Q3ZCM7+P07437+P68363+Q9BQE3+Q6PEY2+Q13885+Q9BVA1+Q9BUF5)", "assay": "Inhibition of tubulin polymerization (unknown origin) assessed as reduction in optical density at 340 nm", "type": "protein-complex assay", "settings": "dose 5-20 µM"}, "[9]": {"molecular_target": "T1, Tubulin (Homo sapiens)", "assay": "Inhibition of tubulin polymerization (unknown origin) assessed as reduction in optical density at 340 nm at 20 uM relative to control", "type": "protein-complex assay"}, "[10]": {"system": "SK-OV-3", "assay": "Induction of apoptosis in human SK-OV-3 cells assessed as upregulation of cleaved-PARP expression at 25 to 50 nM incubated for 24 hrs by Western blotting analysis", "type": "functional, cell-based", "settings": "dose 25-50 nM"}, "[11]": {"system": "SK-OV-3", "assay": "Inhibition of cell migration in human SK-OV-3 cells assessed as area of migrated cells at 10 nM incubated for 24 hrs by crystal violet staining based inverted microscopic analysis (reference value: 30.1 +/- 1.3 mm^3)", "type": "functional"}, "[12]": {"system": "A549", "assay": "Antitumor activity against human A549 cells assessed as reduction in cell viability incubated for 72 hrs by CCK8 assay", "type": "functional, cell-based", "settings": "A549, 72 h"}, "[13]": {"system": "MCF7", "assay": "Inhibition of cell migration in human MCF7 cells assessed as wound closure ratio at 20 nM incubated for 24 hrs by wound healing assay (reference value: 100%)", "type": "functional", "design": "scale not given: the % may be the effect or the level left"}, "[14]": {"system": "SK-OV-3", "assay": "Antitumor activity against human SK-OV-3 cells xenografted in female BALB/c nude mouse assessed as tumor growth inhibition at 10 mg/kg, […] via tail vein once every 2 to 3 days", "type": "functional", "settings": "time 2-3 day, read-out: TGI"}, "[15]": {"system": "MCF7", "assay": "Inhibition of cell migration in human MCF7 cells assessed as wound closure ratio at 1.25 nM incubated for 24 hrs by wound healing assay (reference value: 100%)", "type": "functional", "design": "scale not given: the % may be the effect or the level left"}, "[16]": {"system": "SK-OV-3", "assay": "Induction of apoptosis in human SK-OV-3 cells assessed as downregulation of cleaved-PARP expression at 100 nM incubated for 24 hrs by Western blotting analysis", "type": "functional, cell-based"}, "[17]": {"system": "MCF7", "assay": "Induction of apoptosis in human MCF7 cells assessed as downregulation of Bax expression at 25 to 50 nM incubated for 24 hrs by Western blotting analysis", "type": "functional, cell-based", "settings": "dose 25-50 nM"}, "[18]": {"assay": "Toxicity in female BALB/c nude mouse xenografted with human SK-OV-3 cells assessed as drug tolerance by measuring body weight loss at 30 mg/kg, administered via tail vein for 5 days and measured daily", "type": "organism-based", "settings": "in vivo, iv, 120 h, time 5 day"}, "[19]": {"system": "MCF7", "assay": "Inhibition of cell migration in human MCF7 cells assessed as wound closure at 2.5 nM incubated for 24 hrs by wound healing assay (reference value: 44.5 +/- 8.8%)", "type": "functional", "design": "scale not given: the % may be the effect or the level left"}, "[20]": {"system": "MCF7", "assay": "Inhibition of cell migration in human MCF7 cells assessed as area of migrated cells at 3.125 nM incubated for 24 hrs by crystal violet staining based inverted microscopic analysis (reference value: 18.5 +/- 0.3 mm^3)", "type": "functional"}, "[21]": {"system": "MCF7", "assay": "Inhibition of cell migration in human MCF7 cells assessed as wound closure ratio at 5 nM incubated for 24 hrs by wound healing assay (reference value: 100%)", "type": "functional", "design": "scale not given: the % may be the effect or the level left"}, "[22]": {"assay": "Toxicity in female BALB/c nude mouse xenografted with human SK-OV-3 cells assessed as pathological changes in lung at 5 to 10 mg/kg, […] via tail vein once every 2 to 3 days by H and E staining based analysis", "type": "organism-based", "settings": "in vivo, dose lower 5 mg/kg, time lower 2 day, dose upper 10 mg/kg, time upper 3 day"}, "[23]": {"assay": "Toxicity in female BALB/c nude mouse xenografted with human SK-OV-3 cells assessed as effect on physiological status at 15 mg/kg, administered via tail vein for 5 days and measured daily", "type": "organism-based", "settings": "in vivo, iv, 120 h, time 5 day"}, "[24]": {"system": "MCF7", "assay": "Induction of apoptosis in human MCF7 cells assessed as downregulation of Bcl-2 expression incubated for 24 hrs by Western blotting analysis", "type": "functional, cell-based"}, "[25]": {"system": "MCF7", "assay": "Inhibition of cell migration in human MCF7 cells assessed as increase in cell density at 20 nM incubated for 24 hrs by wound healing assay", "type": "functional, cell-based"}, "[26]": {"assay": "Toxicity in female BALB/c nude mouse xenografted with human SK-OV-3 cells assessed as effect on body weight at 5 to 10 mg/kg, […] via tail vein once every 2 to 3 days", "type": "organism-based", "settings": "in vivo, dose lower 5 mg/kg, time lower 2 day, dose upper 10 mg/kg, time upper 3 day"}, "[27]": {"system": "SK-OV-3", "assay": "Induction of cell cycle arrest in human SK-OV-3 cells assessed as increase in G2/M phase cells at 10 nM incubated for 24 hrs PI staining based flow cytometric analysis (reference value: 24.6 +/- 2.0%)", "type": "functional"}, "[28]": {"system": "MCF7", "assay": "Induction of apoptosis in human MCF7 cells assessed as upregulation of cleaved-caspase-3 expression incubated for 24 hrs by Western blotting analysis", "type": "functional, cell-based"}, "[29]": {"system": "SK-OV-3", "assay": "Inhibition of cell migration in human SK-OV-3 cells assessed as wound closure ratio at 3.125 nM incubated for 24 hrs by wound healing assay (reference value: 100%)", "type": "functional", "design": "scale not given: the % may be the effect or the level left"}, "[30]": {"system": "MCF7", "assay": "Induction of apoptosis in human MCF7 cells assessed as upregulation of Bcl-2 expression at 100 nM incubated for 24 hrs by Western blotting analysis", "type": "functional, cell-based"}, "[31]": {"system": "SK-OV-3", "assay": "Induction of apoptosis in human SK-OV-3 cells assessed as Bax expression at 25 to 50 nM incubated for 24 hrs by Western blotting analysis", "type": "functional, cell-based", "settings": "dose 25-50 nM"}, "[32]": {"assay": "Toxicity in female BALB/c nude mouse xenografted with human SK-OV-3 cells assessed as drug tolerance by measuring lethargy at 30 mg/kg, administered via tail vein for 5 days and measured daily", "type": "organism-based", "settings": "in vivo, iv, 120 h, time 5 day"}, "[33]": {"system": "MCF7", "assay": "Induction of apoptosis in human MCF7 cells assessed as downregulation of cleaved-PARP expression at 100 nM incubated for 24 hrs by Western blotting analysis", "type": "functional, cell-based"}, "[34]": {"system": "SK-OV-3", "assay": "Inhibition of cell migration in human SK-OV-3 cells assessed as ratio of migrated cells at 10 nM incubated for 24 hrs by Transwell assay (reference value: 100 %)", "type": "functional", "design": "scale not given: the % may be the effect or the level left"}}, "note": "Active and inactive are the calls of the source. The calls are words filed in the database; no cut-off is given here."}
{"smiles": "CNc1nc(N2CCCc3cc(OC)ccc32)c2cc(F)ccc2n1", "values": [{"measurement": "Activity", "setting": "[1]", "result": 13.2, "unit": "%"}, {"measurement": "Activity", "setting": "[2]", "result": "Active"}, {"measurement": "Activity", "setting": "[3]", "result": "Active"}, {"measurement": "IC50", "setting": "[4]", "result": 0.8, "unit": "nM"}, {"measurement": "Activity", "setting": "[5]", "result": 46.5, "unit": "%"}, {"measurement": "response, % of control at 0.025 µM", "setting": "[6]", "result": 11.2, "unit": "%"}, {"measurement": "inhibition", "setting": "[7]", "result": "Dose-dependent-effect"}, {"measurement": "inhibition", "setting": "[8]", "result": "Dose-dependent-effect"}, {"measurement": "inhibition", "setting": "[9]", "result": 100, "unit": "%"}, {"measurement": "Activity", "setting": "[10]", "result": "Active"}, {"measurement": "Activity", "setting": "[11]", "result": 6.8, "unit": "mm3"}, {"measurement": "IC50", "setting": "[12]", "result": 2.7, "unit": "nM"}, {"measurement": "Activity", "setting": "[13]", "result": 72.4, "unit": "%"}, {"measurement": "inhibition in vivo at 10 mg/kg", "setting": "[14]", "result": 46.2, "unit": "%"}, {"measurement": "Activity", "setting": "[15]", "result": 105.5, "unit": "%"}, {"measurement": "Activity", "setting": "[16]", "result": "inactive"}, {"measurement": "Activity", "setting": "[17]", "result": "inactive"}, {"measurement": "Activity", "setting": "[18]", "result": "Toxic"}, {"measurement": "Activity", "setting": "[19]", "result": 44, "unit": "%"}, {"measurement": "Activity", "setting": "[20]", "result": 17.5, "unit": "mm3"}, {"measurement": "Activity", "setting": "[21]", "result": 97.3, "unit": "%"}, {"measurement": "Activity", "setting": "[22]", "result": "Non-toxic"}, {"measurement": "Activity", "setting": "[23]", "result": "Toxic"}, {"measurement": "Activity", "setting": "[24]", "result": "Active"}, {"measurement": "inhibition", "setting": "[25]", "result": "Active; Increase In Cell Density Was Notably Slowed Down"}, {"measurement": "Activity", "setting": "[26]", "result": "Non-toxic"}, {"measurement": "Activity", "setting": "[27]", "result": 64.5, "unit": "%"}, {"measurement": "Activity", "setting": "[28]", "result": "Dose-dependent-effect"}, {"measurement": "Activity", "setting": "[29]", "result": 104.5, "unit": "%"}, {"measurement": "Activity", "setting": "[30]", "result": "inactive"}, {"measurement": "Activity", "setting": "[31]", "result": "inactive"}, {"measurement": "Activity", "setting": "[32]", "result": "Toxic"}, {"measurement": "Activity", "setting": "[33]", "result": "inactive"}, {"measurement": "Activity", "setting": "[34]", "result": 22.7, "unit": "%"}]}
